From patent publication US4476120A, “Thiolic derivatives of erythromycin having therapeutic activity, and pharmaceutical compositions containing them” (Sigma Tau Indistrie Farmaceutiche Riunites, p.A, priority 1982, dated 1984)
Converted amounts (≈) assume the structure as drawn.

Tests used:
B. subtilis SS 127 = type: cell-based; details: Brain Heart Infusion, estolate and RV11-RV15 previously hydrolized, unit assumed
B. anthranis SS 08 = type: cell-based; details: Brain Heart Infusion, estolate and RV11-RV15 previously hydrolized, unit assumed
E. cloacae SS 07 = type: cell-based; details: Brain Heart Infusion, estolate and RV11-RV15 previously hydrolized, unit assumed
S. infantis SS 08 = type: cell-based; details: Brain Heart Infusion, estolate and RV11-RV15 previously hydrolized, unit assumed
H. influentiae SS 02 = type: cell-based; details: Brain Heart Infusion, estolate and RV11-RV15 previously hydrolized, unit assumed
Ps. aeruginosa SS 10 = type: cell-based; details: Brain Heart Infusion, estolate and RV11-RV15 previously hydrolized, unit assumed
D. pneumoniae SS 23 [1] = test: Experimental infection induced by D. pneumoniae SS 23; type: in vivo, Swiss white mice; details: D. pneumoniae SS 23, mg/kg of erythromycin, survival after 7 days
In short: (§1)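 Swiss mice of 20 g infected parenterally with lethal amounts of Staph. aureus SS 07 or D. pneumoniae SS 23. Antibiotics were given at infection and again 6 and 24 h later. ED50 was derived from survival at 7 days.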

Pr. mirabilis SS 09 = type: cell-based; details: Brain Heart Infusion, estolate and RV11-RV15 previously hydrolized, unit assumed
E. coli SS 07 = type: cell-based; details: Brain Heart Infusion, estolate and RV11-RV15 previously hydrolized, unit assumed
D. pneumoniae SS 23 [2] = type: cell-based; details: Brain Heart Infusion, estolate and RV11-RV15 previously hydrolized, unit assumed
B. anthranis SS 09 = type: cell-based; details: B. anthranis SS 09 (14 bis); Brain Heart Infusion; estolate and RV11-RV15 previously hydrolized; unit assumed
H. pertussis SS 03 = type: cell-based; details: Brain Heart Infusion, estolate and RV11-RV15 previously hydrolized, unit assumed
[3] = tested on: Strept. haemolyticus SS 17; type: cell-based; details: Brain Heart Infusion, estolate and RV11-RV15 previously hydrolized, unit assumed
S. lutea ATCC 9341 = type: cell-based; details: Brain Heart Infusion, estolate and RV11-RV15 previously hydrolized, unit assumed
Staph. albus SS 03 = type: cell-based; details: Brain Heart Infusion, estolate and RV11-RV15 previously hydrolized, unit assumed
C. albicans SS 04 = type: cell-based; details: Brain Heart Infusion, estolate and RV11-RV15 previously hydrolized, unit assumed
Citrobacter SS 05 = type: cell-based; details: Brain Heart Infusion, estolate and RV11-RV15 previously hydrolized, unit assumed
N. meningitidis SS 04 = type: cell-based; details: Brain Heart Infusion, estolate and RV11-RV15 previously hydrolized, unit assumed
[4] = tested on: Strept. haemolyticus SS 18; type: cell-based; details: Brain Heart Infusion, estolate and RV11-RV15 previously hydrolized, unit assumed
Staph. aureus SS 08 = type: cell-based; details: Brain Heart Infusion, estolate and RV11-RV15 previously hydrolized, unit assumed
Cl. tetani SS 17 = type: cell-based; details: Brain Heart Infusion, estolate and RV11-RV15 previously hydrolized, unit assumed
Br. melitensis SS 19 = type: cell-based; details: unit assumed
[5] = Mucolytic activity: obstruction of the bronchial tract after SO2 inhalation; type: in vivo, Sprague Dawley male rats; details: i.m., 250 mg/kg; SO2, 15 days
Strept. faecalis SS 19 = type: cell-based; details: Brain Heart Infusion, estolate and RV11-RV15 previously hydrolized, unit assumed
Staph. aureus SS 07 [6] = test: Experimental infection induced by Staph. aureus SS 07; type: in vivo, Swiss white mice; details: Staph. aureus SS 07, mg/kg of erythromycin, survival after 7 days
In short: as §1

E. coli SS 04 = type: cell-based; details: Brain Heart Infusion, estolate and RV11-RV15 previously hydrolized, unit assumed
E. aerogenes SS 011 = type: cell-based; details: Brain Heart Infusion, estolate and RV11-RV15 previously hydrolized, unit assumed
Staph. aureus SS 07 [7] = type: cell-based; details: Brain Heart Infusion, estolate and RV11-RV15 previously hydrolized, unit assumed
S. heidelberg SS 18 = type: cell-based; details: Brain Heart Infusion, estolate and RV11-RV15 previously hydrolized, unit assumed
Acute toxicity = type: in vivo; details: mortality 10 days after treatment, mice
Protocol: The acute toxicity was assessed in Swiss white mice by oral and intravenous route. The LD50 values have been calculated by the methods of Probits, starting from the mortality recorded 10 days after the treatment.

B. subtilis ATCC 6633 = type: cell-based; details: Brain Heart Infusion, estolate and RV11-RV15 previously hydrolized, unit assumed
[8] = Histological examination of bronchi after SO2 inhalation; type: in vivo, Sprague Dawley male rats; details: i.m., 250 mg/kg
Br. abortus SS 7 = type: cell-based; details: Brain Heart Infusion, estolate and RV11-RV15 previously hydrolized, unit assumed
Staph. aureus SS 10 = type: cell-based; details: Brain Heart Infusion, estolate and RV11-RV15 previously hydrolized, unit assumed
Kl. aerogenes SS 71 = type: cell-based; details: Brain Heart Infusion, estolate and RV11-RV15 previously hydrolized, unit assumed
C. diphtheriae SS 19 = type: cell-based; details: Brain Heart Infusion, estolate and RV11-RV15 previously hydrolized, unit assumed
Citrobacter SS 09 = type: cell-based; details: Brain Heart Infusion, estolate and RV11-RV15 previously hydrolized, unit assumed
E. coli SS 05 = type: cell-based; details: Brain Heart Infusion, estolate and RV11-RV15 previously hydrolized, unit assumed
H. tubercolosis SS 03 = type: cell-based; details: Brain Heart Infusion, estolate and RV11-RV15 previously hydrolized, unit assumed
Description: (§2) In the following table I the MIC/ml values are indicated corresponding to the lowest concentration capable of inducing a complete inhibition of the bacterial development.

Kl. pneumoniae SS 04 = type: cell-based; details: Brain Heart Infusion, estolate and RV11-RV15 previously hydrolized, unit assumed
Description: as §2

E. coli SS 06 = type: cell-based; details: Brain Heart Infusion, estolate and RV11-RV15 previously hydrolized, unit assumed
B. cereus ATCC 11778 = type: cell-based; details: Brain Heart Infusion, estolate and RV11-RV15 previously hydrolized, unit assumed

CC[C@H]1OC(=O)[C@H](C)[C@@H](O[C@H]2C[C@@](C)(OC)[C@@H](O)[C@H](C)O2)[C@H](C)[C@@H](O[C@@H]2O[C@H](C)C[C@H](N(C)C)[C@H]2O)[C@](C)(O)C[C@@H](C)C(=O)[C@H](C)[C@@H](O)[C@]1(C)O [RV01, erythromycin alpha-mercaptosuccinate]
MIC (B. subtilis SS 127): 0.01 µg/mL (≈ 0.0136 µM)
MIC (B. anthranis SS 08): 0.4 µg/mL (≈ 0.545 µM)
MIC (E. cloacae SS 07): > 200 µg/mL
MIC (S. infantis SS 08): 100 µg/mL (≈ 136 µM)
MIC (H. influentiae SS 02): 1.5 µg/mL (≈ 2.04 µM)
MIC (Ps. aeruginosa SS 10): 200 µg/mL (≈ 273 µM)
ED50 (D. pneumoniae SS 23 [1]; Streptococcus pneumoniae, SS23, in Mus musculus, sc, 168 h, s.c., read-out: ED50 (reliability limits)): 52.7 mg/kg
ED50 (reliability limits) (D. pneumoniae SS 23 [1]; os, 10080 min): 108.98 (137.60-86.32) mg/kg
MIC (Pr. mirabilis SS 09): > 200 µg/mL
MIC (E. coli SS 07): 25 µg/mL (≈ 34.1 µM)
MIC (D. pneumoniae SS 23 [2]): 0.05 µg/mL (≈ 0.0681 µM)
MIC (B. anthranis SS 09): 0.4 µg/mL (≈ 0.545 µM)
MIC (H. pertussis SS 03): 0.4 µg/mL (≈ 0.545 µM)
MIC [3]: 3 µg/mL (≈ 4.09 µM)
MIC (S. lutea ATCC 9341): 0.01 µg/mL (≈ 0.0136 µM)
MIC (Staph. albus SS 03): 0.1 µg/mL (≈ 0.136 µM)
MIC (C. albicans SS 04): > 200 µg/mL
MIC (Citrobacter SS 05): > 200 µg/mL
MIC (N. meningitidis SS 04): 0.8 µg/mL (≈ 1.09 µM)
MIC [4]: 1.5 µg/mL (≈ 2.04 µM)
MIC (Staph. aureus SS 08): 0.025 µg/mL (≈ 0.0341 µM)
MIC (Cl. tetani SS 17): 0.2 µg/mL (≈ 0.273 µM)
MIC (Br. melitensis SS 19): 3 µg/mL (≈ 4.09 µM)
Partial obstruction (% incidence) [5]: 13.33%
Total obstruction, compact plug (% incidence) [5]: 26.66%
Total obstruction, nodular mass (% incidence) [5]: 6.66%
Total obstruction, pimply mass (% incidence) [5]: 13.33%
MIC (Strept. faecalis SS 19): 0.1 µg/mL (≈ 0.136 µM)
ED50 (Staph. aureus SS 07 [6]; Staphylococcus aureus, SS07, in Mus musculus, sc, 168 h, s.c., read-out: ED50 (reliability limits)): 0.95 mg/kg
ED50 (reliability limits) (Staph. aureus SS 07 [6]; os, 10080 min): 2.36 (2.68-2.08) mg/kg
MIC (E. coli SS 04): 50 µg/mL (≈ 68.1 µM)
MIC (E. aerogenes SS 011): 50 µg/mL (≈ 68.1 µM)
MIC (Staph. aureus SS 07 [7]): 0.05 µg/mL (≈ 0.0681 µM)
MIC (S. heidelberg SS 18): 100 µg/mL (≈ 136 µM)
LD50 (reliability limits) (Acute toxicity; i.v., 14400 min): 458.49 (518.06-405.77) mg.kg
LD50 (reliability limits) (Acute toxicity; os): > 3000 mg·kg
MIC (B. subtilis ATCC 6633): 0.01 µg/mL (≈ 0.0136 µM)
histological appearance of non obstructed bronchi ([8]; free non obstructed): practically normal appearance
histological appearance of obstructed bronchial tract ([8]; obstructed): an appearance like that of the control animals
MIC (Br. abortus SS 7): 6 µg/mL (≈ 8.18 µM)
MIC (Staph. aureus SS 10): 0.05 µg/mL (≈ 0.0681 µM)
MIC (Kl. aerogenes SS 71): 100 µg/mL (≈ 136 µM)
MIC (C. diphtheriae SS 19): 0.025 µg/mL (≈ 0.0341 µM)
MIC (Citrobacter SS 09): > 200 µg/mL
MIC (E. coli SS 05): 50 µg/mL (≈ 68.1 µM)
MIC (H. tubercolosis SS 03): 50 µg/mL (≈ 68.1 µM)
MIC (Kl. pneumoniae SS 04): 100 µg/mL (≈ 136 µM)
MIC (E. coli SS 06): 100 µg/mL (≈ 136 µM)
MIC (B. cereus ATCC 11778): 0.4 µg/mL (≈ 0.545 µM)
